Common to all, as to assay: NCI human tumor cell panel
For one experiment, the system named is 786-0. In kind it is cell-based. The conditions noted are these: 786-0, read-out: Log10 LC50 (converted). The text has this:
(§1) Considering the diversity of tumors in terms of cell type, morphology, growth rate and other cellular characteristics, the U.S. National Cancer Institute (NCI) has developed a "disease-oriented" approach to antitumor activity screening (M.R. Boyd, in "Principle of Practice of Oncology" J.T. Devita, S. Hellman, S.A. Rosenberg (Eds.) Vol. 3, PPO Update, No. 10, 1989). This in vitro prescreening system is based on the measurement of antitumor cytotoxicity against human tumor cell line panels consisting of approximately 60 cell lines of major human tumors (including leukemia and slower growing tumor cells such as lung, colon, breast, skin, kidney, etc.). The most important advantage of the new in vitro screening panels is the opportunity to identify compounds that are selectively more cytotoxic to cells of slowly growing solid tumors than to rapidly growing leukemia cells.
(§2) The cytotoxic activity of the present selenophene compounds have been measured utilizing two different assays or screens. The first screen measures the cytotoxicity against a panel of sixty different human tumor cell lines. This assay provides data regarding the general cytotoxicity of an individual compound. In particular this type of assay is useful in identifying compounds which have enhanced cytotoxic activity against slow growing tumors as compared to faster growing tumor cells such as leukemia tumor cell lines. The identification of such compounds is critical since previously identified antitumor agents have low cytotoxic activity against slower growing tumors. […] The specificity of a cytotoxic compound for tumor cell lines relative to normal cells is an important characteristic of an effective antitumor agent.
(§3) Antitumor cytotoxicity data generated from the National Cancer Institute human tumor cell panels can also be expressed in a graphic pattern (mean graph) to display differential cell growth inhibition (K.D. Paull, R.H. Shoemaker, L. Hodes, A. Monks, D.A. Scudiero, L. Rubinstein, J. Plowman and M.R. Boyd, J. Nail. Cancer Inst., 81, 1088, 1989.) In the mean graph, the arithmetic mean of the logarithm of the GI50 (50% growth inhibition), TGI (total growth inhibition) or LC50 (50% lethal concentration) values is used as an anchor point. […] The length of a bar is indicative of differential cytotoxicity against a specific type of tumor cells or tumor panels.
(§4) The antitumor cytotoxicity of the selenophene compounds tested in those in vitro assays was measured by a microculture assay using either a 3-(4,5-dimethylthiazol-2-yl)-2,5-diphenyltetrazolium bromide (MTT) or sulforhodamine B (SRB) based assay. [M.R. Boyd in "Principles and Practices of Oncology," V.T. DeVita, Jr.]. The experiments were conducted at Purdue University in 96-well microtiter plates and the cytotoxic effects of the selenophene compounds on those cells were measured by cell count using a Coulter Z.F. counter (Hialeah, FL). The results are expressed as GI50, the concentration of drug at which cell numbers are reduced to 50% of control cell culture [T.C.K. Chan, C.J. Chang, N.M. Koonchanok and R.L. Geahlen, Biochem. Biophys. Res. Commun., 193, 1152, (1993); S. Hellman and S.A. Rosenberg (Eds.), Vol. 3, PPO Updates, Number 10, (1989).]
(§5) This in vitro microculture assay has an advantage over in vivo assays in that results are obtained within a week as opposed to several months. The MTT assay is based on the production of a dark blue formazan product by dehydrogenase in the mitochondria of live tumor cells after exposure to drug for 6 days [M.C. Alley, D.A. Scudiero, A. Monks, M.L. Hursey, M.J. Czerwinski, D.L. Fine, B.J. Abbott, J.G. Mayo, R.H. Shoemaker and M.R. Boyd, Cancer Res., 48, 589, 1988]. Thus, only live cells are stained and can be measured at 570 nm. […]

For a further experiment, the system named is BT-549. The experiment is classed as cell-based. The conditions noted are these: BT-549, read-out: Log10 LC50 (converted).
Description: as §1, §2, §3, §4, §5

The subject of the next experiment is DU-145. The experiment is classed as cell-based. The conditions noted are these: DU-145, read-out: Log10 LC50 (converted).
Description: as §1, §2, §3, §4, §5

A further experiment deals with IGROV1. In kind it is cell-based. The conditions noted are these: IGROV-1, read-out: Log10 LC50 (converted).
Description: as §1, §2, §3, §4, §5

The next experiment deals with KM12. In kind it is cell-based. The conditions noted are these: KM12, read-out: Log10 LC50 (converted).
Description: as §1, §2, §3, §4, §5

For the next experiment, the system named is MCF7/ADR-RES. In kind it is cell-based. The conditions noted are these: MCF7, read-out: Log10 LC50 (converted).
Description: as §1, §2, §3, §4, §5

The subject of a further experiment is MCF7. In kind it is cell-based. The conditions noted are these: MCF7, read-out: Log10 LC50 (converted).
Description: as §1, §2, §3, §4, §5

The subject of another experiment is MDA-N. In kind it is cell-based. The conditions noted are these: read-out: Log10 LC50 (converted).
Description: as §1, §2, §3, §4, §5

The next experiment has as its system NCI-H522. In kind it is cell-based. The conditions noted are these: NCI-H522, read-out: Log10 LC50 (converted).
Description: as §1, §2, §3, §4, §5

The next experiment relates to OVCAR-5. In kind it is cell-based. The conditions noted are these: OVCAR-5, read-out: Log10 LC50 (converted).
Description: as §1, §2, §3, §4, §5

A further experiment relates to PC-3. The experiment is classed as cell-based. The conditions noted are these: PC-3, read-out: Log10 LC50 (converted).
Description: as §1, §2, §3, §4, §5

A further experiment has as its system SK-MEL-2. In kind it is cell-based. The conditions noted are these: SK-MEL-2, read-out: Log10 LC50 (converted).
Description: as §1, §2, §3, §4, §5

A further experiment concerns SN12C. In kind it is cell-based. The conditions noted are these: read-out: Log10 LC50 (converted).
Description: as §1, §2, §3, §4, §5

The test system of another experiment is SW-620. The experiment is classed as cell-based. The conditions noted are these: SW-620, read-out: Log10 LC50 (converted).
Description: as §1, §2, §3, §4, §5

The test system of the next experiment is EKVX. The conditions noted are these: for CC50: read-out: Log10 LC50 (converted).
The next experiment concerns SF-295. The conditions noted are these: SF-295, read-out: Log10 LC50 (converted).
In a further experiment the test system is SNB-75. The conditions noted are these: for CC50: SNB-75, read-out: Log10 LC50 (converted).
In the next experiment the test system is OVCAR-3. The conditions noted are these: OVCAR-3, read-out: Log10 LC50 (converted).
For a further experiment, the system named is TK-10. The conditions noted are these: for CC50: TK-10, read-out: Log10 LC50 (converted).
A further experiment relates to UO-31. The conditions noted are these: UO-31, read-out: Log10 LC50 (converted).
In the next experiment the test system is MDA-MB-435. The conditions noted are these: MDA-MB-435, read-out: Log10 LC50 (converted).

Six compounds from EP1021178B1, “SELENOPHENE ANTI-TUMOR AGENTS” (Purdue Research Foundation, priority 1996, dated 1997) can be followed below.

`OCc1ccc(-c2ccc(-c3ccc(CO)[se]3)s2)s1`: the CC50 with 786-0 is 57.5 µM; in the experiment on BT-549, greater than 100 µM; in the experiment on DU-145 it was greater than 100 µM; in the experiment with IGROV1 it was 28.2 µM; in the experiment on KM12 it was greater than 100 µM; in the experiment on MCF7/ADR-RES it was greater than 100 µM. The CC50 in the experiment with MCF7, in the experiment with NCI-H522, in the experiment with OVCAR-5, in the experiment with PC-3, in the experiment on SK-MEL-2 and in the experiment with SN12C was greater than 100 µM in each case. The CC50 was greater than 100 µM in the experiment with SW-620; greater than 100 µM with EKVX; greater than 100 µM in the experiment on SF-295; greater than 100 µM with SNB-75; 50.1 µM in the experiment with OVCAR-3; 64.6 µM with TK-10. For the same compound, the CC50 in the experiment on UO-31 and in the experiment on MDA-MB-435 was greater than 100 µM in each case. Besides, the LC50 (50% lethal concentration) with MDA-N is greater than 100 µM.
`OCc1ccc(-c2ccc(-c3ccc(CO)[se]3)[se]2)[se]1`: the CC50 in the experiment on 786-0 is 70.8 µM; in the experiment on BT-549, greater than 100 µM; with DU-145 it was 46.8 µM; with IGROV1 it was 30.2 µM; in the experiment with KM12, 50.1 µM; with MCF7/ADR-RES it was greater than 100 µM. Besides, the CC50 is 47.9 µM with MCF7; 7.08 µM in the experiment on NCI-H522; greater than 100 µM with OVCAR-5; 35.5 µM in the experiment with PC-3; 69.2 µM in the experiment with SK-MEL-2; greater than 100 µM in the experiment on SN12C. The CC50 in the experiment on SW-620 was 9.55 µM; in the experiment on EKVX, greater than 100 µM; in the experiment on SF-295 it was 70.8 µM; in the experiment with SNB-75, greater than 100 µM; with OVCAR-3, 5.37 µM; in the experiment with TK-10, 15.8 µM. In addition, the CC50 with UO-31 is 38.9 µM; in the experiment on MDA-MB-435, 49 µM. The LC50 (50% lethal concentration) with MDA-N is 74.1 µM. In the experiment on TK-10 (TK-10, read-out: Log10 TGI), the IC (TGI) is 0.661 µM.
For the compound `OCc1ccc(-c2ccc(-c3cccs3)[se]2)s1`, the CC50 is greater than 100 µM in the experiment on 786-0; greater than 100 µM in the experiment on BT-549; greater than 100 µM with DU-145; 16.2 µM in the experiment with IGROV1; greater than 100 µM in the experiment with KM12; greater than 100 µM in the experiment with MCF7/ADR-RES. For the same compound, the CC50 in the experiment on MCF7, in the experiment with NCI-H522, with OVCAR-5, with PC-3, in the experiment on SK-MEL-2 and in the experiment on SN12C was greater than 100 µM each time. Moreover, the CC50 in the experiment on SW-620, with EKVX, in the experiment with SF-295, in the experiment on SNB-75, in the experiment on OVCAR-3 and with TK-10 was greater than 100 µM in each case. The CC50 with UO-31 and with MDA-MB-435 was greater than 100 µM in each case. Further, the LC50 (50% lethal concentration) with MDA-N was greater than 100 µM.
For the compound `O=Cc1ccc(-c2ccc(-c3ccc(C=O)[se]3)s2)[se]1`, the CC50 in the experiment on 786-0, in the experiment on BT-549, in the experiment on DU-145, with IGROV1, in the experiment with KM12 and in the experiment with MCF7/ADR-RES was greater than 100 µM in each case. Besides, the CC50 in the experiment on MCF7 was greater than 100 µM; in the experiment with NCI-H522, greater than 100 µM; in the experiment with OVCAR-5, 3.55 µM; with PC-3, greater than 100 µM; in the experiment with SK-MEL-2 it was greater than 100 µM; in the experiment with SN12C it was greater than 100 µM. For the same compound, the CC50 in the experiment on SW-620, in the experiment on EKVX, in the experiment on SF-295, with SNB-75, in the experiment on OVCAR-3 and in the experiment with TK-10 was greater than 100 µM throughout. For the same compound, the CC50 in the experiment with UO-31 and in the experiment on MDA-MB-435 was greater than 100 µM each time. In addition, in the experiment with MDA-N, the LC50 (50% lethal concentration) is greater than 100 µM. The IC (TGI) in the experiment with EKVX (read-out: Log10 TGI) was greater than 100 µM.
Turning to `O=Cc1ccc(-c2ccc(-c3ccc(C=O)[se]3)[se]2)[se]1`, the CC50 in the experiment on 786-0 was greater than 100 µM; in the experiment with BT-549 it was greater than 100 µM; in the experiment with DU-145, greater than 100 µM; with IGROV1, 74.1 µM; in the experiment on KM12, greater than 100 µM; in the experiment on MCF7/ADR-RES it was greater than 100 µM. Besides, the CC50 in the experiment with MCF7 is greater than 100 µM; with NCI-H522, 95.5 µM; with OVCAR-5 it was greater than 100 µM; with PC-3 it was greater than 100 µM; in the experiment with SK-MEL-2, greater than 100 µM; in the experiment on SN12C, greater than 100 µM. The CC50 in the experiment on SW-620, with EKVX, in the experiment with SF-295, with SNB-75, with OVCAR-3 and in the experiment with TK-10 was greater than 100 µM in each case. In addition, the CC50 in the experiment on UO-31 and with MDA-MB-435 was greater than 100 µM in each case. In addition, the LC50 (50% lethal concentration) in the experiment on MDA-N is greater than 100 µM.
On to `O=Cc1ccc(-c2ccc(-c3cccs3)[se]2)s1`, for which the CC50 in the experiment on 786-0, in the experiment on BT-549, with DU-145, with IGROV1, in the experiment on KM12 and in the experiment with MCF7/ADR-RES was greater than 100 µM throughout. Also, the CC50 in the experiment with MCF7, in the experiment on NCI-H522, with OVCAR-5, with PC-3, with SK-MEL-2 and in the experiment with SN12C was greater than 100 µM each time. The CC50 is greater than 100 µM with SW-620; greater than 100 µM with EKVX; greater than 100 µM in the experiment with SF-295; greater than 100 µM in the experiment with SNB-75; greater than 100 µM in the experiment with OVCAR-3; 53.7 µM with TK-10. Moreover, the CC50 in the experiment with UO-31 and in the experiment on MDA-MB-435 was greater than 100 µM in each case. Also, the LC50 (50% lethal concentration) in the experiment on MDA-N is greater than 100 µM. Further, the IC (TGI) with SNB-75 (SNB-75, read-out: Log10 TGI) is 57.5 µM.
